Assay results: US10857110B2, “Antibacterial compounds” (CONSEJO NACIONAL DE INVESTIGACIONES CIENTÍFICAS Y TÉCNICAS …, priority 2016, dated 2020)
In brackets after ≈: the same amount, converted by molar mass. Where two headings read alike, the source gives them in different places. Values belong to the compound of their own block, whether it stands above or below them.

Legend:
Assay in all cases: MIC/MBC antibiotic sensitivity (CLSI)
[1] = system: Achromobacter xylosaxidans (HNA001); type: cell-based, Achromobacter xylosoxidans; settings: for MIC: Achromobacter, CLSI criteria, A. xylosaxidans (HNA001), read-out: MIC (R/I/S category)
Method: (§1) The new compounds of the invention were synthesized following the general method of preparation (Tetrahedron, 2001, 57, 1671-1675), from the reaction between an intermediary compound of the acyl thiourea and HgCl2 in presence of trimethylamine. The products were adequately characterized regarding its chemistry. The antibacterial activity of the new compounds was assayed against two Gram-positive reference strains: Staphylococcus aureus (ATCC6538) and Bacillus cereus (ATCC10876), a fermenting Gram-negative strain: Escherichia coli (ATCC25922), and 26 non-fermenting Gram-negative isolates, including 3 reference strains: Pseudomonas aeruginosa (PAO1), Bordetella bronchiseptica (9.73H+), and Inquilinus limosus (DSM16000), and 23 isolates recovered from patients suffering from cystic fibrosis, including one Achromobacter xylosoxidans isolate, and 22 isolates belonging to the Burkholderia cepacia complex. The later were selected because they presented resistance to a high number of antimicrobial compounds, among a panel of 125 clinical isolates previously analyzed for its resistance against 17 antimicrobial compounds (1,2). The antibiotic sensitivity studies were performed by applying two quantitative methods which allow to determine the minimum inhibitory concentration (MIC) and the minimum bactericidal concentration (MBC).
(§2) The compounds obtained in Examples 1 and 2 were assayed against 23 isolates recovered from the sputum of patients suffering from cystic fibrosis being treated at the Sor Maria Ludovica Children Hospital (La Plata, Buenos Aires, Argentina). Nineteen of these isolates were selected for being highly resistant to most of the antimicrobial agents of clinical use from a panel of 125 isolates previously characterized in Martina et al. (1). Reference strains were also included: Gram (+) bacteria: B. cereus and S. aureus, fermenting Gram (−) bacteria: E. coli, and non-fermenting Gram (−) bacteria: Inquilinus limosus (DSM16000), B. bronchiseptica, and Pseudomonas aeruginosa (PAO1). The antibiotic sensitivity studies were performed applying two quantitative methods which allow to determine the minimum inhibitory concentration (MIC) and the minimum bactericidal concentration (MBC) according to the criteria established by the Clinical and Laboratory Standards Institute (CLSI) (4). For comparative purposes, three antibiotics commonly used in the treatment of pulmonary infections in cystic fibrosis patients were included in the study: tobramycin, ceftazidime and meropenem.

B. cenacepacia (FQC2524) = type: cell-based, B. cenocepacia; settings: Burkholderia cenocepacia, CLSI criteria, read-out: MIC (R/I/S category)
Method: as §1, §2

[2] = system: Burkholderia cenocepacia (CBC 032); type: cell-based; settings: Burkholderia cenocepacia, CLSI criteria, B. cenocepacia (CBC 032), read-out: MIC (R/I/S category)
Method: as §1, §2

[3] = system: Pseudomonas aeruginosa (PAO1); type: cell-based; settings: Pseudomonas aeruginosa, P. aeruginosa (PAO1); for MBC: read-out: MBC; for MIC: read-out: MIC
Method: as §1, §2

[4] = system: Burkholderia multivorans (CBC 015); type: cell-based; settings: for MIC: Burkholderia multivorans, CLSI criteria, B. multivorans (CBC 015), read-out: MIC (R/I/S category)
Method: as §1, §2

[5] = system: Burkholderia cenocepacia (CBC 029); type: cell-based; settings: Burkholderia cenocepacia, CLSI criteria, B. cenocepacia (CBC 029), read-out: MIC (R/I/S category)
Method: as §1, §2

[6] = system: Burkholderia multivorans (CBC 018); type: cell-based; settings: for MIC: Burkholderia multivorans, CLSI criteria, B. multivorans (CBC 018), read-out: MIC (R/I/S category)
Method: as §1, §2

[7] = system: Burkholderia cenocepacia (CBC 035); type: cell-based; settings: for MIC: Burkholderia cenocepacia, CLSI criteria, B. cenocepacia (CBC 035), read-out: MIC (R/I/S category)
Method: as §1, §2

[8] = system: Burkholderia multivorans (CBC 020); type: cell-based; settings: for MIC: Burkholderia multivorans, CLSI criteria, B. multivorans (CBC 020), read-out: MIC (R/I/S category)
Method: as §1, §2

[9] = system: Bacillus cereus (ATCC10876); type: cell-based; settings: for MBC: read-out: MBC; for MIC: read-out: MIC
Method: as §1, §2

[10] = system: Staphylococcus aureus (ATCC6538); type: cell-based; settings: Staphylococcus aureus, S. aureus (ATCC6538); for MBC: read-out: MBC; for MIC: read-out: MIC
Method: as §1, §2

[11] = system: Burkholderia multivorans (CBC 019); type: cell-based; settings: for MIC: Burkholderia multivorans, CLSI criteria, B. multivorans (CBC 019), read-out: MIC (R/I/S category)
Method: as §1, §2

[12] = system: Burkholderia cenocepacia (CBC 033); type: cell-based; settings: Burkholderia cenocepacia, CLSI criteria, B. cenocepacia (CBC 033), read-out: MIC (R/I/S category)
Method: as §1, §2

B. contaminans (HNBC001) = type: cell-based; settings: CLSI criteria, read-out: MIC (R/I/S category)
Method: as §1, §2

[13] = system: Burkholderia seminalis (CBC 042); type: cell-based; settings: Burkholderia seminalis, CLSI criteria, B. seminalis (CBC 042), read-out: MIC (R/I/S category)
Method: as §1, §2

[14] = system: Burkholderia cepacia (CBC 010); type: cell-based; settings: for MIC: Burkholderia cepacia, CLSI criteria, B. cepacia (CBC 010), read-out: MIC (R/I/S category)
Method: as §1, §2

[15] = system: Burkholderia seminalis (CBC 040); type: cell-based; settings: Burkholderia seminalis, CLSI criteria, B. seminalis (CBC 040), read-out: MIC (R/I/S category)
Method: as §1, §2

[16] = system: Burkholderia multivorans (CBC 022); type: cell-based; settings: for MIC: Burkholderia multivorans, CLSI criteria, B. multivorans (CBC 022), read-out: MIC (R/I/S category)
Method: as §1, §2

[17] = system: Burkholderia cenocepacia (CBC 036); type: cell-based; settings: Burkholderia cenocepacia, CLSI criteria, B. cenocepacia (CBC 036), read-out: MIC (R/I/S category)
Method: as §1, §2

[18] = system: Burkholderia cenocepacia (CBC 024); type: cell-based; settings: Burkholderia cenocepacia, CLSI criteria, B. cenocepacia (CBC 024), read-out: MIC (R/I/S category)
Method: as §1, §2

[19] = system: Burkholderia cenocepacia (CBC 023); type: cell-based; settings: Burkholderia cenocepacia, CLSI criteria, B. cenocepacia (CBC 023), read-out: MIC (R/I/S category)
Method: as §1, §2

[20] = system: Escherichia coli (ATCC25922); type: cell-based; settings: Escherichia coli, E. coli (ATCC25922); for MBC: read-out: MBC; for MIC: read-out: MIC
Method: as §1, §2

[21] = system: Inquilinus limosus (DSM16000); type: cell-based
Method: as §1, §2

[22] = system: Burkholderia cenocepacia (CBC 031); type: cell-based; settings: Burkholderia cenocepacia, CLSI criteria, B. cenocepacia (CBC 031), read-out: MIC (R/I/S category)
Method: as §1, §2

MIC ([1]; Meropenem): < 4 mg/L
MIC (B. cenacepacia (FQC2524); Meropenem): < 4 mg/L
MIC ([2]; Meropenem): > 16 mg/L
MIC [3]: < 0.48 mg/L
MIC ([4]; Meropenem): < 4 mg/L
MIC ([5]; Meropenem): > 16 mg/L
MIC ([6]; Meropenem): < 4 mg/L
MIC ([7]; Meropenem): < 4 mg/L
MIC ([8]; Meropenem): < 4 mg/L
MIC [9]: < 0.48 mg/L
MIC [10]: < 0.48 mg/L
MIC ([11]; Meropenem): < 4 mg/L
MIC ([12]; Meropenem): > 16 mg/L
MIC (B. contaminans (HNBC001); Meropenem): > 16 mg/L
MIC ([13]; Meropenem): > 16 mg/L
MIC ([14]; Meropenem): < 4 mg/L
MIC ([15]; Meropenem): > 16 mg/L
MIC ([16]; Meropenem): < 4 mg/L
MIC ([17]; Meropenem): > 16 mg/L
MIC ([18]; Meropenem): > 16 mg/L
MIC ([19]; Meropenem): > 16 mg/L
MIC [20]: < 0.48 mg/L
MIC ([21]; read-out: MIC): < 0.48 mg/L
MIC ([22]; Meropenem): > 16 mg/L
Structure (SMILES): C[C@@H](O)[C@H]1C(=O)N2C(C(=O)O)=C(S[C@@H]3CN[C@H](C(=O)N(C)C)C3)[C@H](C)[C@H]12 [Meropenem, meropenem]
MBC ([1]; Achromobacter xylosaxidans (HNA001)): 7.81 mg/L (≈ 20.4 µM)
MBC [3]: < 0.48 mg/L
MBC ([4]; Burkholderia multivorans (CBC 015), read-out: MBC): 3.9 mg/L (≈ 10.2 µM)
MBC ([6]; Burkholderia multivorans (CBC 018), read-out: MBC): 3.9 mg/L (≈ 10.2 µM)
MBC ([7]; Burkholderia cenocepacia (CBC 035), read-out: MBC): 15.6 mg/L (≈ 40.7 µM)
MBC ([8]; Burkholderia multivorans (CBC 020)): 31.2 mg/L (≈ 81.5 µM)
MBC [9]: < 0.48 mg/L
MBC [10]: < 0.48 mg/L
MBC ([11]; Burkholderia multivorans (CBC 019)): 7.81 mg/L (≈ 20.4 µM)
MBC ([14]; Burkholderia cepacia (CBC 010)): 3.9 mg/L (≈ 10.2 µM)
MBC ([16]; Burkholderia multivorans (CBC 022)): 7.81 mg/L (≈ 20.4 µM)
MBC [20]: < 0.48 mg/L
MBC [21]: < 0.48 mg/L

MIC ([1]; Tobramucin): > 16 mg/L
MIC (B. cenacepacia (FQC2524); Tobramucin): > 16 mg/L
MIC ([2]; Tobramucin): > 16 mg/L
MIC [3]: 1.95 mg/L (≈ 4.17 µM)
MIC ([4]; Tobramucin): > 16 mg/L
MIC ([5]; Tobramucin): > 16 mg/L
MIC ([6]; Tobramucin): > 16 mg/L
MIC ([7]; Tobramucin): > 16 mg/L
MIC ([8]; Tobramucin): > 16 mg/L
MIC [9]: 7.81 mg/L (≈ 16.7 µM)
MIC [10]: 1.95 mg/L (≈ 4.17 µM)
MIC ([11]; Tobramucin): > 16 mg/L
MIC ([12]; Tobramucin): > 16 mg/L
MIC (B. contaminans (HNBC001); Tobramucin): > 16 mg/L
MIC ([13]; Tobramucin): > 16 mg/L
MIC ([14]; Tobramucin): > 16 mg/L
MIC ([15]; Tobramucin): > 16 mg/L
MIC ([16]; Tobramucin): > 16 mg/L
MIC ([17]; Tobramucin): > 16 mg/L
MIC ([18]; Tobramucin): > 16 mg/L
MIC ([19]; Tobramucin): > 16 mg/L
MIC [20]: 15.6 mg/L (≈ 33.4 µM)
MIC ([21]; Tobramucin, CLSI criteria, read-out: MIC (R/I/S category)): > 16 mg/L
MIC ([22]; Tobramucin): > 16 mg/L
Structure (SMILES): NC[C@H]1O[C@H](O[C@H]2[C@H](O)[C@@H](O[C@H]3O[C@H](CO)[C@@H](O)[C@H](N)[C@H]3O)[C@H](N)C[C@@H]2N)[C@H](N)C[C@@H]1O [Tobramucin, tobramycin]
MBC [3]: 1.95 mg/L (≈ 4.17 µM)
MBC [9]: 31.2 mg/L (≈ 66.8 µM)
MBC [10]: 1.95 mg/L (≈ 4.17 µM)
MBC [20]: 15.6 mg/L (≈ 33.4 µM)
